Laboratory results reported in US6573059B1, “Use of the regulatory subunit of the camp dependent protein kinase (PKA) from dictyostelium for camp measurements” (RMF Dictagene S.A., priority 2000, dated 2003).
Where “and” joins values, the source holds several entries; their conditions need not be identical. Identical values can stand only once. Like-named read-outs stand apart in the source and are kept apart here. One block for each compound: values may come before it.

Tests used:
[1] = molecular target: T1, R26-GFP (truncated R subunit of cAMP dependent protein kinase (PKA), cAMP binding site A, fused to w7 GFP) (Dictyostelium discoideum, UniProt P05987); test: FRET titration and competition for cyclic nucleotide binding to purified R26-GFP
T1 sequence (P05987 1-170): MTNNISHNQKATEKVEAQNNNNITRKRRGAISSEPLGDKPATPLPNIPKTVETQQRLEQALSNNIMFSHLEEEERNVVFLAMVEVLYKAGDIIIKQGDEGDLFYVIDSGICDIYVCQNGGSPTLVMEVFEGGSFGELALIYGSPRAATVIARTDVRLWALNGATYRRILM
Protocol: Fluorescently labelled cGMP (8-{{2-{(Fluoresceinylthioureido)amino}ethyl}thio} guanosine-3′, 5′-cyclic, Biolog) was added to purified R26-GFP and fluorescence emission recorded while exciting at 433 nm.
In a further experiment, unlabelled cAMP was added in a 5 fold excess over 8-fluo-cGMP.
The concentration of labelled 8-fluo-cGMP was varied while recording fluorescence changes (FIG. 3, inset).
In order to measure the real KD for cAMP, a competition experiment was performed by varying stepwise 8-fluo-cGMP concentration For each 8-fluo-cGMP concentration, increasing concentrations of unlabelled cAMP was added, allowing to calculate the apparent KD for cAMP in each Case (FIG. 4).
For FRET measurements, R-26-GFP was diluted to about 0.1 μM. Excitation was performed at 433 nm, while emission was recorded over a range from 450 to 550 nm in a PTI C60 spectrofluorimeter (Photon Technology International).
Different concentrations of 8-Fluo-cGMP (8-{{2-{(Fluoresecinylthioureido)amino}ethyl}thio} guanosine 3′, 5′-cyclic monophosphate, Biolog) were added as indicated (5 fold excess in FIG. 2, open squares) and emission spectra were recorded again. […] In competition experiments, unlabelled cAMP was added at the indicated concentrations (FIG. 3, 100 μM).

[2] = tested on: double GFP-R (R subunit with w7 and S65T GFPs flanking cAMP binding site A); settings: 500 μM cAMP, emission spectrum, excitation 434 nm
Protocol: The spectral properties of the double GFP-R were determined using a spectrofluorimeter PTI C60 with photomultiplicator. […] The shoulder corresponds to the emission of the w7, whereas the major peak represents S65T emission.
A conformational change could also result simply from the binding of cAMP. The double GFP-R was incubated with increasing concentrations of cAMP.
Emission spectra from 450 to 550 nm were recorded using a fixed excitation at 434 nm with a bandwidth of 8 nm and an integration time between 0.2 and 1 sec (FIG. 6).
In a second experiment, partially purified double GFP-R was incubated in the presence of increasing concentration of cAMP (FIG. 6B).

[3] = molecular target: regulatory subunit of the cAMP dependent protein kinase (PKA) from Dictyostelium (Dictyostelium discoideum, UniProt P05987); settings: read-out: KD for cAMP; Dictyostelium R subunit, background section; cited from earlier work
Sequence of regulatory subunit of the cAMP dependent protein kinase (PKA) from Dictyostelium (P05987 whole entry): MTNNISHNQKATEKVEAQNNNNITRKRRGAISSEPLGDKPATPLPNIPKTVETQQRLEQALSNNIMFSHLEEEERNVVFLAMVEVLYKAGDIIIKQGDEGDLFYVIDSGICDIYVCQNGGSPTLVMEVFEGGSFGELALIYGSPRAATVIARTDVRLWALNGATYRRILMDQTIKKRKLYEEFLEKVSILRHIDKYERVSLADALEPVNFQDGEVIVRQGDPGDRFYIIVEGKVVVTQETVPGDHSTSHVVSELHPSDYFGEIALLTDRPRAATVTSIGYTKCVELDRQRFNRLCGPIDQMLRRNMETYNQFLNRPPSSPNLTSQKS

[4] = molecular target: mammalian enzymes (PKA regulatory subunit); settings: read-out: KD for cAMP, background section; cited from earlier work

SMILES: Nc1ncnc2c1nc(SCCNC(=S)Nc1ccc3c(c1)C(=O)OC31c3ccc(O)cc3Oc3cc(O)ccc31)n2[C@@H]1O[C@@H]2COP(=O)(O)O[C@H]2[C@H]1O [8-fluo-cAMP, 8-{{2-{(Fluoresceinylthioureido)amino}ethyl}thio}adenosine-3′,5′-cyclic monophosphate]
Kd [1]: ~4.5 nM

SMILES: Nc1nc2c(nc(SCCNC(=S)Nc3ccc4c(c3)C(=O)OC43c4ccc(O)cc4Oc4cc(O)ccc43)n2[C@@H]2O[C@@H]3COP(=O)(O)O[C@H]3[C@H]2O)c(=O)[nH]1 [8-fluo-cGMP, 8-{{2-{(Fluoresecinylthioureido)amino}ethyl}thio} guanosine 3′, 5′-cyclic monophosphate]
Kd [1]: ~80 nM

amplitude change compared to double GFP/R alone [2]: about 10% | Kd ([1]; true KD for cAMP, competition of unlabelled cAMP with 8-fluo-cGMP, apparent KDs extrapolated to 0): 20 nM and ~20 nM
SMILES: Nc1ncnc2c1ncn2[C@@H]1O[C@@H]2COP(=O)(O)O[C@H]2[C@H]1O [cAMP]
Kd [3]: ~20 nM | Kd [4]: 10 to 30 nM

Kd ([1]; reverse competition experiment, read-out: KD for cGMP): ~1850 nM
SMILES: Nc1nc2c(ncn2[C@@H]2O[C@@H]3COP(=O)(O)O[C@H]3[C@H]2O)c(=O)[nH]1 [cGMP]
